Measurements from PubChem BioAssay (NCI).
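Test compounds were applied to cells in 96-well plates for 48 hours at 5 doses. The concentration for 50% growth inhibition is given as GI50. TGI denotes the concentration required for complete inhibition of growth.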

Assays:
Test in all cases: DTP human tumour cell line panel, 48 h
SN12C renal = system: SN12C renal
MOLT-4 leukemia = system: MOLT-4 leukemia
A498 renal = system: A498 renal
SK-MEL-5 melanoma = system: SK-MEL-5 melanoma
SNB-75 CNS = system: SNB-75 CNS
T-47D breast = system: T-47D breast
MDA-MB-231 breast = system: MDA-MB-231 breast
OVCAR-4 ovarian = system: OVCAR-4 ovarian
SW-620 colon = system: SW-620 colon
M14 melanoma = system: M14 melanoma

Row | SMILES | GI50 (SN12C renal) [µM] | TGI (SN12C renal) [µM] | GI50 (MOLT-4 leukemia) [µM] | TGI (MOLT-4 leukemia) [µM] | GI50 (A498 renal) [µM] | TGI (A498 renal) [µM] | TGI (SK-MEL-5 melanoma) [µM] | GI50 (SNB-75 CNS) [µM] | TGI (SNB-75 CNS) [µM] | GI50 (T-47D breast) [µM] | TGI (T-47D breast) [µM] | GI50 (MDA-MB-231 breast) [µM] | TGI (MDA-MB-231 breast) [µM] | GI50 (OVCAR-4 ovarian) [µM] | TGI (OVCAR-4 ovarian) [µM] | GI50 (SW-620 colon) [µM] | TGI (SW-620 colon) [µM] | TGI (M14 melanoma) [µM] | GI50 (M14 melanoma) [µM] | GI50 (SK-MEL-5 melanoma) [µM]
1 | CCCCCCCCCCCCCCCCC(=O)O.CCCCCCCCCCCCCCCCCC(=O)O.CCCCCCCCCCCCCCCCCC(=O)O.CCCCCCCCCCCCCCCCCC(=O)O.CCCCCCCCCCCCCCCCCC(=O)O.CO[CH-]OC12COC1CC(O)C1(C)C(O)C(OC(C)O)C3=C(C)C(OC(=O)C(O)C([NH-])c4ccccc4)CC(O)(C(OC(=O)c4ccccc4)C21)C3(C)C.[Cu+].[Zn].[Zn].[Zn].[Zn].[Zn] (stereo not drawn) | 0.0116 | > 25 | 0.0104 | > 18.5 | < 0.0025 | 0.0187 | 3.57 | < 0.0025 | 0.0211 | 0.00863 | > 25 | 0.0135 | 4.48 | 2.35 | 11.7 | 0.00662 | > 16.2 | – | – | –
2 | Cc1cc(C)nc(NS(=O)(=O)c2ccc(Nc3c4ccc(Cl)cc4nc4c(C(=O)NCCN(C)C)cccc34)cc2)n1 | – | > 100 | – | > 100 | – | > 100 | > 100 | – | > 100 | – | – | – | – | – | > 100 | – | > 100 | > 100 | – | –
3 | Cc1ccc(S(=O)OCC23CC4CC(CC(C4)C2)C3)cc1 (stereo not drawn) | – | > 100 | – | > 100 | – | > 100 | > 100 | – | > 100 | – | – | – | – | – | > 100 | – | > 100 | > 100 | – | –
4 | OCc1ccc(N2CCc3ccccc3C2)cc1Cl | 11.4 | > 100 | 27.2 | > 78.7 | < 0.015 | 0.0355 | – | 15.9 | 57.7 | – | – | 12.4 | 40.8 | < 0.0149 | 0.0633 | < 0.0218 | > 100 | > 100 | 34.1 | –
5 | COc1cc(/C=C/C(=O)N2CCN(C(=O)c3cc(OC)c(OC)c(OC)c3)CC2)ccc1OCCCOc1cc2c(cc1OC)C(=O)N1CCC[C@H]1C=N2 | 0.303 | 21.8 | 0.218 | 1.59 | 0.205 | 0.51 | 0.415 | 0.241 | 0.642 | 0.15 | 0.495 | – | – | 1.53 | 27.5 | 0.198 | 0.446 | 1.42 | 0.346 | 0.193
6 | COc1cc([C@@H]2C[C@H]2c2cc(SC)n[nH]2)cc(OC)c1OC | 8.98 | 31.8 | 20.3 | > 100 | – | – | 29 | 26.4 | > 100 | 16.5 | > 100 | 12.1 | 33.2 | 26.2 | > 100 | 26.9 | > 100 | 28.5 | 13.9 | 14.7
7 | COC(=O)C1=C(C(=O)OC)C2(C)Nc3ccccc3C2=C(c2ccccc2)C1 (stereo not drawn) | – | 57.7 | – | 29.6 | – | – | 29.9 | – | – | – | – | – | – | – | 50.1 | – | 69.6 | 31.8 | – | –
8 | CC1(c2ccccc2)CC(c2cccc([N+](=O)[O-])c2)=NO1 (stereo not drawn) | – | > 100 | – | > 100 | – | > 100 | > 100 | – | > 100 | – | – | – | – | – | > 100 | – | > 100 | > 100 | – | –
9 | CC(C)NC(=O)CCN(C(=O)O)S(=O)(=O)c1ccc(NC(=O)c2ccccc2)cc1 | – | > 100 | – | > 57.9 | – | > 100 | > 100 | – | > 100 | – | – | – | – | – | > 100 | – | > 52.4 | > 100 | – | –
10 | Cc1ccc(NC(=O)/C(Cl)=C(/Cl)C(=O)O)cc1 | – | 32.5 | – | 43.5 | – | > 100 | 55.2 | – | 34.1 | – | – | – | – | – | 33.1 | – | 29.9 | 28.7 | – | –
11 | O=C(COC(=O)c1cccc2c(=O)c3ccccc3[nH]c12)Nc1ccc(C(=O)O)cc1 | – | > 100 | – | > 100 | – | > 100 | > 100 | – | > 100 | – | – | – | – | – | > 100 | – | > 100 | > 100 | – | –
12 | COc1ccc(C2C=C(c3ccc4c(c3)OCO4)Oc3c2c(=O)oc2ccccc32)cc1OC (stereo not drawn) | – | > 100 | – | > 100 | – | 7.21 | > 100 | – | 34.2 | – | – | – | > 100 | – | > 100 | – | > 100 | > 100 | – | –
13 | CC1=CC(N2C(=O)C(C)=CC2O)NC1=O (stereo not drawn) | – | > 100 | – | – | – | – | – | – | > 100 | – | – | – | – | – | > 100 | – | > 100 | > 100 | – | –
14 | COc1cc(/C=C2\C[C@H]3[C@@H]4CC=C5C[C@@H](O)CC[C@]5(C)[C@H]4CC[C@]3(C)[C@H]2O)ccc1OCCCn1ccnc1 | 2.73 | 13.2 | > 50 | > 50 | – | – | 12.4 | – | – | 17.7 | > 50 | 0.863 | 1.74 | – | – | – | – | – | – | 4.15
15 | O=C1CCSC2=C1SCc1sccc12 | – | > 100 | – | > 100 | – | – | > 100 | – | > 100 | – | – | – | – | – | > 100 | – | > 100 | > 100 | – | –
16 | Cc1ccc(Cl)c(Nc2ccccc2C(=O)O)c1Cl | 30.7 | > 100 | 29.9 | 83.9 | 22.2 | 87.4 | 33.5 | – | – | 33.4 | > 100 | 32.1 | > 100 | 29.9 | 94.6 | 34.4 | > 100 | 62.6 | 21.3 | 18.2
17 | CC(=O)c1cc(C(=O)c2ccc3c(c2)Sc2ccccc2N3)c2cc(C)ccn12 | 0.479 | > 100 | 0.329 | > 100 | 0.0431 | > 100 | 5.56 | 0.0416 | > 100 | – | – | 0.348 | > 100 | 1.29 | > 100 | 0.0559 | > 100 | > 100 | 0.0593 | 0.122
18 | O=S(=O)(/N=c1/scc(-c2ccccc2)n1-c1ccccc1)c1ccc(N2N=C3c4ccccc4CC3C2c2cccs2)cc1 (stereo not drawn) | 94.3 | > 100 | 19 | 63.7 | – | – | > 100 | > 100 | > 100 | > 100 | > 100 | 52.1 | > 100 | > 100 | > 100 | 94.2 | > 100 | > 100 | 81.5 | 48
